Experimental data reported in patent publication US10000486B2 (priority 2012, dated 2018).
Where a name gives a salt, the structure may show the parent alone. Read-outs that look alike come from different tables or passages of the source.

How the values were obtained:
VSVg pseudotyped virus = test: organism not typed; assay type: cell-based
Junín pseudotyped virus = test: organism not typed; assay type: cell-based; conditions: read-out: Activity (EC50 in μM vs. pseudotyped virus) Junín
[1] = tested on: Lassa GP-pseudotyped-virus; test: microbe, parasite or virus in culture; assay type: cell-based, Lassa fever virus; conditions: Human immunodeficiency virus 1, read-out: Activity (EC50 in μM vs. pseudotyped virus) Lassa
[2] = tested on: Machupo pseudotyped virus; test: organism not typed; assay type: cell-based
[3] = read-out: Activity (EC50 in μM vs. pseudotyped virus) VSVg
[4] = read-out: Activity (EC50 in μM vs. pseudotyped virus) Machupo

SMILES	EC50 (VSVg pseudotyped virus; [3])	EC50 (Junín pseudotyped virus)	EC50 [1]	EC50 [2, 4]	EC50 (VSVg pseudotyped virus; read-out: EC50 (Note 2, VSVg))	EC50 ([2]; read-out: EC50 (Note 1, Machupo))
CCOc1ccc(-n2cnc3cc(/C=C/c4ccc(CC)cc4)ccc32)nc1 [Compound 18, 1-(5-ethoxy-2-pyridyl)-5-[(E)-2-(4-ethylphenyl)vinyl]benzimidazole hydrochloride]	10 to 50 µM	1 to 10 µM	< 1 µM	–	–	–
CC(C)Oc1ccc(-n2cnc3cc(/C=C\c4ccc(C5(N)CC5)cc4)ccc32)cc1 [Compound 54, 1-[4-[(Z)-2-[1-(4-isopropoxyphenyl)benzimidazol-5-yl]vinyl]phenyl]cyclopropanamine]	10 to 50 µM	< 1 µM	< 1 µM	< 1 µM	–	–
CC(C)Oc1ccc(-n2cnc3cc(/C=C\c4ccc(C5(O)CC5)cc4)ccc32)cc1 [Compound 48, 1-[4-[(Z)-2-[1-(4-isopropoxyphenyl)benzimidazol-5-yl]vinyl]phenyl]cyclopropanol]	10 to 50 µM	< 1 µM	< 1 µM	< 1 µM	–	–
CCOc1ccc(-c2c[nH]c3cc(NCc4ccc(CC)cc4)ccc23)cc1 [Compound 64, 3-(4-ethoxyphenyl)-N-[(4-ethylphenyl)-methyl]-1H-indol-6-amine]	10 to 50 µM	< 1 µM	< 1 µM	< 1 µM	–	–
CCc1ccc(/C=C/c2ccc3c(c2)ncn3-c2ccc(OC(C)C)cc2)cc1 [Compound 8, 5-[(E)-2-(4-ethylphenyl)vinyl]-1-(4-isopropoxyphenyl)-benzimidazole]	10 to 50 µM	< 1 µM	< 1 µM	< 1 µM	–	–
CCOc1ccc(-n2c[n+]([O-])c3cc(NCc4ccc(CC)cc4)ccc32)cc1 [Compound 67, 1-(4-ethoxyphenyl)-N-[(4-ethylphenyl)-methyl]-3-oxido-benzimidazol-3-ium-5-amine]	10 to 50 µM	< 1 µM	< 1 µM	< 1 µM	–	–
CC(C)Oc1ccc(-n2cnc3cc(/C=C\c4ccc(C5(O)COC5)cc4)ccc32)cc1 [Compound 53, 3-[4-[(Z)-2-[1-(4-isopropoxyphenyl)benzimidazol-5-yl]vinyl]phenyl]oxetan-3-ol]	1 to 10 µM	< 1 µM	< 1 µM	< 1 µM	–	–
CCOc1ccc(-n2cnc3cc(/C=C/c4ccc(C(F)(F)F)cc4)ccc32)cc1 [Compound 12, 1-(4-ethoxyphenyl)-5-[(E)-2-[4-(trifluoromethyl)phenyl]vinyl]benzimidazole]	–	10 to 50 µM	10 to 50 µM	–	196 µM	51 µM
CCOc1ccc(-n2cnc3cc(/C=C\c4ccc(C(F)(F)F)cc4)ccc32)cc1 [Compound 13]	10 to 50 µM	< 1 µM	< 1 µM	< 1 µM	–	–
COC(=O)c1ccc(/C=C\c2ccc3c(c2)ncn3-c2ccc(OC(C)C)cc2)cc1 [Compound 37, methyl 4-[(Z)-2-[1-(4-isopropoxyphenyl)-benzimidazol-5-yl]vinyl]benzoate]	10 to 50 µM	< 1 µM	< 1 µM	< 1 µM	–	–
CCOc1ccc(-c2cnc3cc(NCc4ccc(CC)cc4)ccn23)cc1 [Compound 65, 3-(4-ethoxyphenyl)-N-[(4-ethylphenyl)-methyl]imidazo[1,2-a]pyridin-7-amine]	1 to 10 µM	< 1 µM	< 1 µM	< 1 µM	–	–
CC(C)Oc1ccc(-n2cnc3cc(/C=C\c4ccc(C5(O)CNC5)cc4)ccc32)cc1 [Compound 58, 3-[4-[(Z)-2-[1-(4-isopropoxyphenyl)benzimidazol-5-yl]vinyl]phenyl]azetidin-3-ol]	10 to 50 µM	< 1 µM	1 to 10 µM	< 1 µM	–	–
CC(C)Oc1ccc(-n2cnc3cc(C4CC4c4ccc(C(C)(C)C)cc4)ccc32)cc1 (centres unmarked) [Compound 36, 5-[2-(4-tert-butylphenyl)cyclopropyl]-1-(4-isopropoxyphenyl)-benzimidazole]	10 to 50 µM	< 1 µM	< 1 µM	< 1 µM	–	–
CC(C)Oc1ccc(-n2cnc3cc(/C=C\c4ccc(C(C)O)cc4)ccc32)cc1 (centres unmarked) [Compound 51, 1-[4-[(Z)-2-[1-(4-isopropoxyphenyl)benzimidazol-5-yl]vinyl]phenyl]ethanol]	1 to 10 µM	< 1 µM	< 1 µM	< 1 µM	–	–
CCOc1ccc(-n2cnc3cc(C#Cc4ccc(CC)cc4)cnc32)cc1 [Compound 26, 3-(4-ethoxyphenyl)-6-[2-(4-ethylphenyl)-ethynyl]imidazo[4,5-b]pyridine]	10 to 50 µM	1 to 10 µM	1 to 10 µM	10 to 50 µM	–	–
CC(C)Oc1ccc(-n2cnc3cc(/C=C\c4ccc(C5(O)CCC5)cc4)ccc32)cc1 [Compound 52, 1-[4-[(Z)-2-[1-(4-isopropoxyphenyl)benzimidazol-5-yl]vinyl]phenyl]cyclobutanol]	1 to 10 µM	< 1 µM	< 1 µM	< 1 µM	–	–

SMILES	EC50 (VSVg pseudotyped virus; [3])	EC50 (Junín pseudotyped virus)	EC50 [1]	EC50 [2, 4]	EC50 (VSVg pseudotyped virus; read-out: EC50 (Note 2, VSVg))	EC50 ([2]; read-out: EC50 (Note 1, Machupo))
CCOc1ccc(-n2cnc3cc(/C=C/c4ccc(OC(F)(F)F)cc4)ccc32)cc1 [Compound 10, 1-(4-ethoxyphenyl)-5-[(E)-2-[4-(trifluoromethoxy)phenyl]vinyl]benzimidazole]	> 50 µM	< 1 µM	< 1 µM	1 to 10 µM	–	–
CCOc1ccc(-n2cnc3cc(CNc4ccc(CC)cc4)ccc32)cc1 [Compound 34, N-[[1-(4-ethoxyphenyl)benzimidazol-5-yl]methyl]-4-ethyl-aniline]	10 to 50 µM	< 1 µM	< 1 µM	< 1 µM	–	–
CC(C)Oc1ccc(-n2cnc3cc(/C=C\c4ccc(C(C)(C)F)cc4)ccc32)cc1 [Compound 39, 5-[(Z)-2-[4-(1-fluoro-1-methyl-ethyl)phenyl]vinyl]-1-(4-isopropoxy-phenyl)benzimidazole]	1 to 10 µM	< 1 µM	< 1 µM	< 1 µM	–	–
CCOc1ccc(-n2cnc3cc(OCc4ccc(CC)cc4)ccc32)cc1 [Compound 29, 1-(4-ethoxyphenyl)-5-[(4-ethylphenyl)-methoxy]benzimidazole]	10 to 50 µM	< 1 µM	< 1 µM	< 1 µM	–	–
CC(C)Oc1ccc(-n2cnc3cc(/C=C\c4ccc(C(C)(O)C(F)(F)F)cc4)ccc32)cc1 (centres unmarked) [Compound 46, 1,1,1-trifluoro-2-[4-[(Z)-2-[1-(4-isopropoxyphenyl)benzimidazol-5-yl]vinyl]phenyl]propan-2-ol]	1 to 10 µM	–	< 1 µM	< 1 µM	–	–
CCOc1ccc(-n2cnc3cc(/C=C/c4ccc(CC)cc4)ccc32)cc1 [Compound 1, 1-(4-ethoxyphenyl)-5-[(E)-2-(4-ethylphenyl)vinyl]benzimidazole]	10 to 50 µM	–	< 1 µM	< 1 µM	–	–
CC(C)Oc1ccc(-n2cnc3cc(/C=C\c4ccc(C(C)(C)N)cc4)ccc32)cc1 [Compound 60, 2-[4-[(Z)-2-[1-(4-isopropoxyphenyl)benzimidazol-5-yl]vinyl]phenyl]propan-2-amine]	> 50 µM	< 1 µM	< 1 µM	< 1 µM	–	–
CCOc1ccc(-n2cnc3cc(/C=C\c4ccc(CC)cc4)cnc32)cc1 [Compound 22, 3-(4-ethoxyphenyl)-6-[(Z)-2-(4-ethylphenyl)vinyl]imidazo[4,5-b]pyridine]	10 to 50 µM	< 1 µM	< 1 µM	< 1 µM	–	–
COc1ccc(-n2cnc3cc(OCc4ccc(C(C)C)cc4)ccc32)cc1 [Compound 30, 5-[(4-isopropylphenyl)methoxy]-1-(4-methoxyphenyl)benzimidazole]	10 to 50 µM	< 1 µM	< 1 µM	< 1 µM	–	–
CCOc1ccc(-n2cnc3cc(CCc4ccc(CC)cc4)cnc32)cc1 [Compound 28, 3-(4-ethoxyphenyl)-6-[2-(4-ethylphenyl)-ethyl]imidazo[4,5-b]pyridine]	> 50 µM	< 1 µM	< 1 µM	< 1 µM	–	–
CC(C)Oc1ccc(-n2cnc3cc(/C=C\c4ccc(C5(O)CCCC5)cc4)ccc32)cc1 [Compound 56, 1-[4-[(Z)-2-[1-(4-isopropoxyphenyl)benzimidazol-5-yl]vinyl]phenyl]cyclopentanol]	1 to 10 µM	–	< 1 µM	< 1 µM	–	–
CCOc1ccc(-n2ccc3cc(NCc4ccc(CC)cc4)cnc32)cc1 [Compound 66, 1-(4-ethoxyphenyl)-N-[(4-ethylphenyl)-methyl]pyrrolo[2,3-b]pyridin-5-amine]	> 50 µM	–	< 1 µM	1 to 10 µM	–	–
CC(C)Oc1ccc(-n2cnc3cc(/C=C\c4ccc(C5(O)CCCCC5)cc4)ccc32)cc1 [Compound 57, 1-[4-[(Z)-2-[1-(4-isopropoxyphenyl)benzimidazol-5-yl]vinyl]phenyl]cyclohexanol]	1 to 10 µM	–	< 1 µM	< 1 µM	–	–
CC(C)Oc1ccc(-n2cnc3cc(/C=C\c4ccc(C(C)(C)O)cc4)ccc32)nc1 [Compound 42, 2-[4-[(Z)-2-[1-(5-isopropoxy-2-pyridyl)benzimidazol-5-yl]vinyl]phenyl]propan-2-ol]	1 to 10 µM	–	< 1 µM	< 1 µM	–	–
CCOc1ccc(Cn2cnc3cc(NCc4ccc(CC)cc4)cnc32)cc1 [Compound 62, 3-[(4-ethoxyphenyl)methyl]-N-[(4-ethylphenyl)-methyl]imidazo[4,5-b]pyridin-6-amine]	1 to 10 µM	–	1 to 10 µM	1 to 10 µM	–	–
CC(C)Oc1ccc(-n2cnc3cc(/C=C\c4ccc(C(C)(C)C(F)(F)F)cc4)ccc32)cc1 [Compound 43, 1-(4-isopropoxyphenyl)-5-[(Z)-2-[4-(2,2,2-trifluoro-1,1-dimethyl-ethyl)phenyl]vinyl]benzimidazole]	1 to 10 µM	–	< 1 µM	< 1 µM	–	–
